Patent US20170202939A1, “PERSONALIZED CANCER VACCINES AND METHODS THEREFOR” (Washington University, priority 2014, published 2017)
No end group written: not given here.

System: TCRβ clonotypes in CD8+ T cell populations
Assay: TCRβ CDR3 sequencing of neoantigen-specific CD8+ T cells, pre- and post-vaccine
Parameters: species or system human
Experimental: Short-term ex-vivo expanded neoantigen-specific T cells were purified to 97-99% purity by cell sorting in a Sony SY3200 BSC (Sony Biotechnology) fitted with a 100 um nozzle, at 30 psi, using 561 nm (585/40) and 642 nm (665/30) lasers and cell pellets were prepared. DNA isolation and TCRβ sequencing was performed by Adaptive Biotechnologies and The Genome Institute at Washington University. Sequencing was performed at either survey (for neoantigen-specific TCRβ reference libraries) or deep (for pre- and post-vaccine CD8+ T cell populations) level (Robins, H., et al., J. Immunol. Methods, 375, 14-19, 2012; Carlson, C. S., et al., Nat. Commun., 4, 2680, 2013). TCRβ V-, D-, J-genes of each CDR3 regions were defined using IMGT (ImMunoGeneTics)/Junctional algorithms and data uploaded into the ImmunoSeq Analyzer (Adaptive Biotechnologies) for analysis. Complete amino acid identity between the reference library and pre- and post-vaccine CD8 samples was required for assigning a TCRβ match. In the reference library, TCRβ clonotypes with frequencies above 0.1% (>100-fold sequencing depth) were set as a threshold for identification of neoantigen-specific TCRβ CDR3 sequences within pre- and post-vaccine CD8+ T cell populations.
Reference T cell receptor-β (TCRβ) complementarity-determining region 3 (CDR3) sequence libraries (shown schematically in FIG. 42, Tables 7-11) were generated from short-term expanded sorted neoantigen-specific T cells (97-99% dextramer-positive), in Tables 7-11, TCRBV, TCRBD and TCRBJ are shown according to consensus nomenclature and CDR3 sequence for each clonotype indicated. Read counts indicates the number of times a given CDR3 sequence was found in the short term ex-vivo expanded neoantigen population. TCRβ clonotypes with frequencies above 0.1% (>100-fold sequencing depth), in reference library, were set as a threshold for identification of neoantigenspecific TCRβ CDR3 sequences within CD8+ T cell populations isolated from PBMC obtained pre- and post-vaccination. […] Frequencies are shown as percent of total reads. […]

IILVAVPHV
TCRβ clonotypes, post-vaccine (CD8+ T cells from PBMC after vaccination): 12 clonotypes
TCRβ clonotypes, pre-vaccine (CD8+ T cells from PBMC before vaccination): 2 clonotypes
TCRβ families represented (post-vaccine clonotypes): 8 TCRβ families
